The subject of one series is KPC pancreatic cancer. Put plainly: KPC pancreatic cancer model (tumor volumes, tumor tissue immune cells). The settings on record: tumor tissues. It counts as in vivo.
Series [1] concerns GPVI platelet aggregation. The series can be described thus: GPVI platelet aggregation studies. It counts as cell-based. The settings on record: read-out: IC50, GPVI platelet aggregation.
Series [2] has as its system 80 known pharmacologic targets (G-protein-coupled receptors, nuclear receptors, proteases, ion channels). The series can be described thus: Binding assays on 80 known pharmacologic targets at 10 μM. The settings on record: screened at 10 μM. The source says:
Formula (2) was well tolerated in standard in vivo Good Laboratory Practices (GLP) studies of pharmacologic safety.

Series [3] has as its system EGFR phosphorylation (p-EGFR Y1069) in A431 cells. The series can be described thus: EGF-induced EGFR phosphorylation in A431 cells (phosphoflow). It counts as cell-based, human. As to the method:
Phosphoflow cytometry was performed with p-EGFR (Y1069). MFI values were normalized so that 100% represents the p-EGFR level in stimulated cells without inhibitor, while 0% represents the unstimulated/no drug condition.

Series [4] can be described thus: Preliminary evaluation of metabolism in plasma, bile and urine. The following applies: rats, dogs, monkeys. The class given is in vivo.
For the next series, the system named is ID8 ovarian cancer. Put plainly: ID8 syngeneic orthotopic ovarian cancer murine model. It counts as in vivo, mice. The following applies: 15 mg/kg/BID orally. The source says:
[…] ovarian cancer models, including the ID8 syngeneic orthotopic ovarian cancer model and other animal models, are described in Fong and Kakar, J. Ovarian Res. 2009, 2, 12; Greenaway, et al., Gynecol. Oncol. 2008, 108, 385-94; Urzua, et al., Tumour Biol. 2005, 26, 236-44; Janat-Amsbury, et al., Anticancer Res. 2006, 26, 3223-28; Janat-Amsbury, et al., Anticancer Res. 2006, 26, 2785-89. […] The results of the study are shown in FIG. 8, FIG. 9, FIG. 10, FIG. 11, FIG. 12, FIG. 13, FIG. 14, and FIG. 15.

The subject of the next series is NSCLC (KrasLA2). The series can be described thus: KrasLA2 genetic tumor model of NSCLC. It counts as in vivo. The following applies: KrasLA2 mice, 15 mg/kg. The source says:
The model is designed to have sporadic expression in single cells of G12D mutant Kras off its own promoter triggered by spontaneous intrachromosomal recombination. Johnson, et al., Nature 2001, 410, 1111-16. While the mutant Kras protein is expressed in a few cells in all tissues, tumor development is seen only in the lung at high penetrance.

The test system of series [5] is NK cell lysis of Raji cells. The series can be described thus: Rituximab ADCC 51Cr release assay, Raji targets. The class given is cell-based, human. The following applies: 1 μM; NK cells, E:T 25:1. The source says:
Cell culture conditions were as follows. […] The HER18 cells were maintained in DEM supplemented with fetal bovine serum, penicillin-streptomycin and. Prior to assay, HER18 cells were harvested using trypsin-EDTA, washed with phosphate-buffered saline (PBS) containing 5% serum and viable cells were counted. For culture of primary target cells, peripheral blood from CLL patients was subject to density centrifugation to obtain peripheral blood mononuclear cells (PBMC). Cell preparations were washed and then subject to positive selection of CD5^+CD19^+ CLL cells using magnetic beads (MACS, Miltenyi Biotech). Cell preparations were used fresh after selection. NK cells from CLL patients and healthy volunteers were enriched from peripheral blood collected in sodium citrate anticoagulant tubes and then subject to density centrifugation. Removal of non NK cells was performed using negative selection by MACS separation. Freshly isolated NK cells were washed three times, enumerated, and then used immediately for ADCC assays.
ADCC assays were performed as follows. Briefly, target cells (Raji or primary CLL) were labeled by incubation at 37° C. with 100 μCi ^51Cr for 4 hours prior to co-culture with NK cells. Cells were washed, enumerated, and then added in triplicate to prepared 96-well plates containing treated NK cells at an effector:target (E:T) ratio of 25:1. […] Cultures were incubated at 37° C. for 4 hours, and then centrifuged. Supernatants were harvested and ^51Cr release was measured by liquid scintillation counting. All experiments were performed in triplicate.

The test system of a further series is Th17 and Treg cells. Put plainly: Th17 and Treg development of CD4+ T cells under skewing cytokines. It counts as cell-based. As to the method: Enriched CD4^+ T cells are plated on 24-well culture dishes that have been precoated 2 hr with 250 μL anti-TCRβ (0.5 μg/mL) plus anti-CD28 (5 μg/mL) at 37° C. in PBS. The cells are then supplemented with media containing BTK inhibitors along with the skewing cytokines as indicated in the following. The Th17 and Treg cultures are grown for 4 days before analysis. The cells are maintained for an additional 3 days with skewing cytokines (Th17; 20 ng/mL IL-6, 0.5 ng/mL TGF-β, 5 μg/mL IL-4, 5 μg/mL IFN-γ and Treg; 0.5 ng/mL TGF-β, 5 μg/mL IL-4, 5 μg/mL IFN-γ) and are supplemented with IL2 as a growth factor.

The test system of series [6] is CD8+ T cell function (B lymphoblast targets). The series can be described thus: Cytotoxic T cell (CTL) assay. It counts as cell-based. The settings on record: CTL generated 4 days with 500 nM inhibitor. The procedure:
Without being bound by any theory, CD8^+ T cells have two primary effector functions: (1) produce large amounts of IFN-γ (which activates macrophages), and (2) cytolytic activity. […] The targets were B lymphoblasts from lipopolysaccharide (LPS) treated cultures. The assay was performed by incubating different ratios of effectors:targets for 4 hours.

As usually defined, the pIC50 is the IC50 on a negative log10 scale, so that one unit is a factor of ten. Usually inhibition stands for the share of the control response that was lost under treatment.

pIC50: −log10 of the molar value.

In the case of `CC#CC(=O)N1CCC[C@H]1c1nc(-c2ccc(C(=O)Nc3ccccn3)cc2)c2c(N)nccn12` [Formula (2), (S)-4-(8-amino-3-(1-(but-2-ynoyl)pyrrolidin-2-yl)imidazo[1,5-a]pyrazin-1-yl)-N-(pyridin-2-yl)benzamide], in the series on KPC pancreatic cancer, the “immunosuppressive MDSCs (Gr1+Ly6CHi)” value is given as “significantly reduced”, the “immunosuppressive TAMs (CD11b+Ly6ClowF4/80+Csf1r+)” value is “significantly reduced” and the “immunosuppressive Tregs (CD4+CD25+FoxP3+)” value is on record as “significantly reduced”. For the same compound, the negative logarithm of the IC50 (pIC50) in [1] was 5.94. In series [2], the “activity in binding assays on 80 known pharmacologic targets” value is “significant activity only against the A3 adenosine receptor”. Also, the “inhibition of in vitro EGFR phosphorylation” value in [3] (10 μM, A431 human epidermoid cancer cell line) is listed as “no inhibition”. Moreover, in [3] (Homo sapiens, A-431, A431 cells, 2 h, EGF 100 ng/mL 5 min), at 10 µM the inhibition was 7%. For the same compound, the “metabolic processes in plasma, bile, and urine” value in series [4] was “oxidation, glutathione binding, and hydrolysis”. Besides, the “CD8+ T cells” value in the series on ID8 ovarian cancer was “increase”. Moreover, in the series on ID8 ovarian cancer (tumor-bearing mice), the “immunosuppressive B cells, including Bregs” value is “significant reduction” and the immunosuppressive tumor-associated lymphocytes entry is on record as “significant reduction”. In the series with NSCLC (KrasLA2), the “tumor volumes versus vehicle” value is “significant decrease”. Besides, in series [5], the “effect on rituximab-mediated ADCC, Raji cells” value is recorded as “not inhibited”. Moreover, in the series on Th17 and Treg cells, the Th17 development entry is listed as “no adverse effect” and the Treg development result is “no adverse effect”. In [6], the “CD8+ T cell function as % cytotoxicity” value is on record as “no effect”.

Source of the values: patent US20190022092A1, “Therapeutic Combinations of a BTK Inhibitor and a GITR Binding Molecule, a 4-1BB Agonist, or an OX40 Agonist” (Acerta Pharma B.V., priority 2015, published 2019).
